pEC50: −log10 of the molar value. Where two headings read alike, the source gives them in different places.
Tests used:
[1] = target: T1, human thyroid receptor beta ligand-binding domain (LBD) (Homo sapiens, UniProt P10828); experiment: TR-FRET thyroid receptor beta coactivator assay (THR biochemical assay, Assay 1); conditions: for pEC50: THR-beta, TR-FRET coactivator assay, read-out: Activity category Assay 1 (EC50, THR-beta agonist); for Emax: read-out: Activity category Assay 1 THRβ (Emax)
T1 construct: purchased Invitrogen
T1 sequence (P10828 217-461 limits assumed): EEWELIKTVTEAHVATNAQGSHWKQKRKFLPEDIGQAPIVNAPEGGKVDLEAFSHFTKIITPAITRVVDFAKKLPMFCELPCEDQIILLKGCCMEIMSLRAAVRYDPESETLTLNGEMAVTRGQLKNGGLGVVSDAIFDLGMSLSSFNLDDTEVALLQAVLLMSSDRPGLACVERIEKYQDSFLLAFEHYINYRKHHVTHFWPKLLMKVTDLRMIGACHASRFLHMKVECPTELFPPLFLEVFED
From the text: (§1) The TR-FRET thyroid receptor beta coactivator assay was used with slight, optimized modifications of the manufacturer's protocol (Invitrogen). The assay uses a terbium-labeled anti-GST antibody, a glutathione-S-transferase (GST) tagged human thyroid receptor, beta or alpha, ligand-binding domain (LBD), and a fluorescein labeled SRC2-2 coactivator peptide. […] The energy transfer is detected as an increase in the fluorescence emission of the fluorescein acceptor, and a decrease in the fluorescence emission of the terbium donor. The assay is performed in a 384-well black plate in a final volume of 20 μL. Serial dilution of various test agonists was performed in DMSO (1% final DMSO concentration) and added to the test plate. Thyroid receptor beta LBD is added to the plate at a final concentration of 1 nM, followed by the mixture of the fluorescein labeled SRC2-2 coactivator peptide, and the terbium-labeled anti-GST antibody at final concentrations of 200 nM and 2 nM respectively. The assay is incubated for 1 hr at rt protected from light.

[2] = target: T2, human thyroid receptor alpha ligand-binding domain (LBD) (Homo sapiens, UniProt P10827); experiment: TR-FRET thyroid receptor alpha coactivator assay (THR biochemical assay, Assay 1); conditions: for pEC50: Table 4, THR-alpha, read-out: Activity category Assay 1 (EC50, THR-alpha agonist activity); for Emax: read-out: Activity category Assay 1 THRα (Emax)
T2 construct: purchased Invitrogen
From the text: as §1

T2 sequence (P10827 163-410 isoform P10827-2 limits assumed, other chains not shown): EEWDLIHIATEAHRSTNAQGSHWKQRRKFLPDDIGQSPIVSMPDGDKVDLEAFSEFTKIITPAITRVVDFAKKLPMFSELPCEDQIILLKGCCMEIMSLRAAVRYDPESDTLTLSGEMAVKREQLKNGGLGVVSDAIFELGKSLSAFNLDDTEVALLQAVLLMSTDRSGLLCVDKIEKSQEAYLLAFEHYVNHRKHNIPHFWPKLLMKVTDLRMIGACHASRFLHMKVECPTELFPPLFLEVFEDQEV

pEC50 [1]	Emax ([1]; Table 5, Assay 1, THRβ)	pEC50 [2]	Emax ([2]; Table 5, THRα)	Activity category Assay 1 THRβ (Emax) ([1]; Table 5, Assay 1, THRβ)	Activity category Assay 1 THRα (Emax) ([2]; Table 5, THRα)	SMILES	Emax [1]
4.60 to 6.00	< 50%	4.60 to 6.00	< 50%			N#C[C@@H]1CC[C@H]1c1cc(Oc2c(Cl)cc(-n3nc(N)c(=O)[nH]c3=O)cc2Cl)n[nH]c1=O (relative stereo) [Compound 105]	
< 4.60	< 50%	< 4.60	< 50%			CC(c1ccccc1)c1cc(Oc2c(Cl)cc(-n3nc(N)c(=O)[nH]c3=O)cc2Cl)n[nH]c1=O (single isomer, unassigned) [Compound 163, 6-Amino-2-(3,5-dichloro-4-((6-oxo-5-(1-phenylethyl)-1,6-dihydropyridazin-3-yl)oxy)phenyl)-1,2,4-triazine-3,5(2H,4H)-dione]	
> 7.30	< 50%	6.00 to 6.60	< 50%			Nc1nn(-c2cc(Cl)c(Oc3cc(C4Cc5ccccc54)c(=O)[nH]n3)c(Cl)c2)c(=O)[nH]c1=O (single isomer, unassigned) [Compound 165, 6-amino-2-(4-((5-(bicyclo[4.2.0]octa-1(6),2,4-trien-7-yl)-6-oxo-1,6-dihydropyridazin-3-yl)oxy)-3,5-dichlorophenyl)-1,2,4-triazine-3,5(2H,4H)-dione]	
6.60 to 7.30		< 4.60		C (Emax<50%)	C (Emax<50%)	Nc1nn(-c2cc(Cl)c(Oc3cc(C4Cc5ccccc54)c(=O)[nH]n3)c(Cl)c2)c(=O)[nH]c1=O (single isomer, unassigned) [Compound 166, 6-amino-2-(4-((5-(bicyclo[4.2.0]octa-1(6),2,4-trien-7-yl)-6-oxo-1,6-dihydropyridazin-3-yl)oxy)-3,5-dichlorophenyl)-1,2,4-triazine-3,5(2H,4H)-dione]	
< 4.60	< 50%	< 4.60	< 50%			CC(c1ccccc1)c1c[nH]c2ccc(Oc3c(Cl)cc(-n4nc(C#N)c(=O)[nH]c4=O)cc3Cl)cc12 (stereo not shown) [Compound 6, 2-(3,5-dichloro-4-[[3-(1-phenylethyl)-1H-indol-5-yl]oxy]phenyl)-3,5-dioxo-4H-1,2,4-triazine-6-carbonitrile]	
< 4.60	< 50%	< 4.60	< 50%			N#Cc1nn(-c2cc(Cl)c(Oc3ccc4[nH]cc(C(=O)N5CCc6ccccc6C5)c4c3)c(Cl)c2)c(=O)[nH]c1=O [Compound 22]	
4.60 to 6.00	< 50%	4.60 to 6.00	< 50%			CCn1nc(-c2cc(Cl)c(Oc3cc(C(C)C)c(=O)[nH]n3)c(Cl)c2)c(=O)[nH]c1=O [Compound 23]	
6.00 to 6.60	> 75%	6.00 to 6.60	< 50%			CSCc1nn(-c2cc(Cl)c(Oc3cc(C(C)C)c(=O)[nH]n3)c(Cl)c2)c(=O)[nH]c1=O [Compound 33, 2-[3,5-dichloro-4-[(5-isopropyl-6-oxo-1H-pyridazin-3-yl)oxy]phenyl]-6-[(methylsulfanyl)-methyl]-4H-1,2,4-triazine-3,5-dione]	
4.60 to 6.00	< 50%	< 4.60	< 50%			CC(C)c1cc(Oc2c(Cl)cc(-n3nc(CS(C)(=O)=O)c(=O)[nH]c3=O)cc2Cl)n[nH]c1=O [Compound 34, 2-[3,5-dichloro-4-[(5-isopropyl-6-oxo-1H-pyridazin-3-yl)oxy]-phenyl]-6-(methanesulfonylmethyl)-4H-1,2,4-triazine-3,5-dione]	
< 4.60	< 50%	< 4.60	< 50%			Nc1nn(-c2cc(Cl)c(Oc3n[nH]c(=O)cc3-c3cccc(Cl)c3)c(Cl)c2)c(=O)[nH]c1=O [Compound 68-A, 6-amino-2-(3,5-dichloro-4-((4-(3-chlorophenyl)-6-oxo-1,6-dihydropyridazin-3-yl)oxy)phenyl)-1,2,4-triazine-3,5(2H,4H)-dione]	
< 4.60	< 50%	< 4.60	< 50%			Nc1nn(-c2cc(Cl)c(Oc3n[nH]c(=O)cc3-c3cccc(F)c3)c(Cl)c2)c(=O)[nH]c1=O [Compound 69-A, 6-amino-2-(3,5-dichloro-4-((4-(3-fluorophenyl)-6-oxo-1,6-dihydropyridazin-3-yl)oxy)phenyl)-1,2,4-triazine-3,5(2H,4H)-dione]	
< 4.60	< 50%	< 4.60	< 50%			Cc1cccc(-c2cc(=O)[nH]nc2Oc2c(Cl)cc(-n3nc(N)c(=O)[nH]c3=O)cc2Cl)c1 [Compound 70-A, 6-amino-2-(3,5-dichloro-4-((6-oxo-4-(m-tolyl)-1,6-dihydropyridazin-3-yl)oxy)phenyl)-1,2,4-triazine-3,5(2H,4H)-dione]	
< 4.60	< 50%	< 4.60	< 50%			CCc1cccc(-c2cc(=O)[nH]nc2Oc2c(Cl)cc(-n3nc(N)c(=O)[nH]c3=O)cc2Cl)c1 [Compound 71-A, 6-Amino-2-(3,5-dichloro-4-((4-(3-ethylphenyl)-6-oxo-1,6-dihydropyridazin-3-yl)oxy)phenyl)-1,2,4-triazine-3,5(2H,4H)-dione]	
6.00 to 6.60	< 50%	4.60 to 6.00	< 50%			CC(C)c1cc(Oc2c(Cl)cc(-n3nc(C#N)c(=O)[nH]c3=O)c3c2CC3)n[nH]c1=O [Compound 78, 2-[4-Chloro-5-[(5-isopropyl-6-oxo-1H-pyridazin-3-yl)oxy]bicyclo[4.2.0]octa-1(6),2,4-trien-2-yl]-3,5-dioxo-4H-1,2,4-triazine-6-carbonitrile]	
< 4.60	< 50%	< 4.60	< 50%			Nc1nn(-c2cc(Cl)c(Oc3cc(-c4ccc5nnccc5c4)c(=O)[nH]n3)c(Cl)c2)c(=O)[nH]c1=O [Compound 108]	
< 4.60	< 50%	< 4.60	< 50%			Nc1nn(-c2cc(Cl)c(Oc3n[nH]c(=O)cc3-c3ccc4nnccc4c3)c(Cl)c2)c(=O)[nH]c1=O [Compound 109]	
< 4.60	< 50%	< 4.60	< 50%			Nc1nn(-c2cc(Cl)c(Oc3cc(-c4ccc5ccnnc5c4)c(=O)[nH]n3)c(Cl)c2)c(=O)[nH]c1=O [Compound 110]	
< 4.60	< 50%	< 4.60	< 50%			Nc1nn(-c2cc(Cl)c(Oc3n[nH]c(=O)cc3-c3ccc4ccnnc4c3)c(Cl)c2)c(=O)[nH]c1=O [Compound 111]	
4.60 to 6.00	< 50%	4.60 to 6.00	< 50%			Nc1nn(-c2cc(Cl)c(Oc3cc(-c4ccc5ccnn5c4)c(=O)[nH]n3)c(Cl)c2)c(=O)[nH]c1=O [Compound 122]	
< 4.60	< 50%	< 4.60	< 50%			Nc1nn(-c2cc(Cl)c(Oc3n[nH]c(=O)cc3-c3ccc4ccnn4c3)c(Cl)c2)c(=O)[nH]c1=O [Compound 123]	
4.60 to 6.00	< 50%	< 4.60	< 50%			Nc1nn(-c2cc(Cl)c(Oc3n[nH]c(=O)cc3-c3ccn4nccc4c3)c(Cl)c2)c(=O)[nH]c1=O [Compound 125]	
< 4.60	< 50%	< 4.60	< 50%			Nc1nn(-c2cc(Cl)c(Oc3cc(-c4ccn5cncc5c4)c(=O)[nH]n3)c(Cl)c2)c(=O)[nH]c1=O [Compound 126]	
< 4.60	< 50%	< 4.60	< 50%			Nc1nn(-c2cc(Cl)c(Oc3n[nH]c(=O)cc3-c3ccn4cncc4c3)c(Cl)c2)c(=O)[nH]c1=O [Compound 127]	
< 4.60	< 50%	4.60 to 6.00	< 50%			Nc1nn(-c2cc(Cl)c(Oc3cc(-c4cc5ccccn5n4)c(=O)[nH]n3)c(Cl)c2)c(=O)[nH]c1=O [Compound 130]	
4.60 to 6.00	< 50%	4.60 to 6.00	< 50%			Nc1nn(-c2cc(Cl)c(Oc3n[nH]c(=O)cc3-c3cc4ccccn4n3)c(Cl)c2)c(=O)[nH]c1=O [Compound 131]	
< 4.60	< 50%	< 4.60	< 50%			Nc1nn(-c2cc(Cl)c(Oc3cc(-c4cnc5ccccc5c4)c(=O)[nH]n3)c(Cl)c2)c(=O)[nH]c1=O [Compound 132]	
6.00 to 6.60	< 50%	< 4.60	< 50%			Nc1nn(-c2cc(Cl)c(Oc3n[nH]c(=O)cc3-c3cnc4ccccc4c3)c(Cl)c2)c(=O)[nH]c1=O [Compound 133]	

SMILES	pEC50 [1]	Emax ([1]; Table 5, Assay 1, THRβ)	pEC50 [2]	Emax ([2]; Table 5, THRα)	Activity category Assay 1 THRβ (Emax) ([1]; Table 5, Assay 1, THRβ)	Activity category Assay 1 THRα (Emax) ([2]; Table 5, THRα)	Emax [1]
N#Cc1nn(-c2cc(Cl)c(Oc3ccc4[nH]cc(-c5ccccc5)c4c3)c(Cl)c2)c(=O)[nH]c1=O [Compound 7, 2-[3,5-dichloro-4-[(3-phenyl-1H-indol-5-yl)oxy]phenyl]-3,5-dioxo-4H-1,2,4-triazine-6-carbonitrile]	< 4.60		< 4.60	< 50%			< 50%

Source: patent US12180192B2, “Modulators of THR-β and methods of use thereof” (ALIGOS THERAPEUTICS, INC., priority 2019, dated 2024)
